Measured values reported in PubChem BioAssay (NCI).
Where “and” joins values, the source holds several entries; their conditions need not be identical. Equal entries are not always repeated.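 Each compound was tested at five concentrations against cells in 96-well plates for 48 hours. At the TGI there is no net growth.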

Columns and labels:
Test in all cases: NCI anticancer screen, dose series, 48 h
BT-549 breast = test system: BT-549 breast
CAKI-1 renal = test system: CAKI-1 renal
EKVX NSCLC = test system: EKVX NSCLC
HOP-62 NSCLC = test system: HOP-62 NSCLC
K-562 leukemia = test system: K-562 leukemia
MALME-3M melanoma = test system: MALME-3M melanoma
MDA-N = test system: MDA-N
NCI-H460 lung = test system: NCI-H460 lung
SF-539 CNS = test system: SF-539 CNS
SK-MEL-5 melanoma = test system: SK-MEL-5 melanoma
SNB-75 CNS = test system: SNB-75 CNS
TK-10 renal = test system: TK-10 renal
UACC-257 melanoma = test system: UACC-257 melanoma
HCT-116 colon = test system: HCT-116 colon
RPMI-8226 leukemia = test system: RPMI-8226 leukemia

SMILES | TGI (BT-549 breast) | TGI (CAKI-1 renal) [µM] | TGI (EKVX NSCLC) [µM] | TGI (HOP-62 NSCLC) [µM] | TGI (K-562 leukemia) [µM] | TGI (MALME-3M melanoma) [µM] | TGI (MDA-N) [µM] | TGI (NCI-H460 lung) [µM] | TGI (SF-539 CNS) [µM] | TGI (SK-MEL-5 melanoma) [µM] | TGI (SNB-75 CNS) [µM] | TGI (TK-10 renal) [µM] | TGI (UACC-257 melanoma) [µM] | TGI (HCT-116 colon) [µM] | TGI (RPMI-8226 leukemia)
O=C(Nc1ccc(Cl)cc1)NS(=O)(=O)c1coc2cc(F)ccc2c1=O | > 100 µM | > 100 | > 100 | > 100 | > 100 | > 100 | > 100 | > 100 | > 100 | > 100 | > 100 | > 100 | > 100 |  | 
COc1ccc(-c2c(C#N)c(N)n(C3OCC(OC(C)=O)C(OC(C)=O)C3OC(C)=O)c(=S)c2C#N)cc1 (stereo unspecified) | 78.7 µM and 99 µM | > 100 | > 100 | > 100 |  | > 100 | > 100 | > 100 | > 100 | > 100 | > 100 |  | > 100 | > 100 | 75.1 µM and 97.5 µM
O=C1/C(=C/c2cccc(Br)c2)CCc2ccccc21 | 22.2 µM | 30.3 | 32.7 | 30.1 | 29.9 | 26 | 24.5 | 28.5 | 31.4 |  | 30 | 31 | 28.6 | 19.9 | 
CCCCCCCCCCCCCCCCCCNC(=O)C(N)Cc1ccc(OCc2ccccc2)cn1 (stereo unspecified) | 57.3 µM | 32.7 | 46.8 | 40 | 95.1 | 42.9 | 49.2 | 29.9 |  | 31.9 | 47.4 | 28.8 | 43.7 | 38.2 | 80.6 µM
COC(=O)c1ccc(C)cc1CC1Cc2cc(C)ccc2C1=O (stereo unspecified) | > 100 µM | > 100 | > 100 | > 100 | > 100 | > 100 | > 100 | > 100 | > 100 |  | > 100 | > 100 | > 100 | > 100 | > 100 µM
CN(C)Nc1cc(=O)[nH]c(=O)[nH]1 | > 100 µM |  | > 100 | > 100 | > 100 | > 100 | > 100 | > 100 | > 100 | > 100 |  | > 100 | > 100 | > 100 | > 100 µM
C=CCN1C(=O)C=C(c2ccccc2)n2ncc3cccc1c32 | > 100 µM | > 100 | > 100 | > 100 |  | > 100 | > 100 |  | > 100 | > 100 |  | > 100 | > 100 | > 100 | > 100 µM
CCOP(=O)(OCC)/C(C#N)=C/c1ncc[nH]1 | > 100 µM | > 100 | > 100 | > 100 | > 100 | > 100 | > 100 | > 100 | 72.9 | > 100 | > 100 |  | > 100 | > 100 | > 100 µM
CNc1ncnc2c1ncn2C1C=CC(COS(N)(=O)=O)C1 (stereo unspecified) | > 100 µM | > 100 | > 100 | > 100 | > 100 | > 100 | > 100 | > 100 | > 100 | > 100 | > 100 |  | > 100 | > 100 | > 100 µM
O=C1/C(=C\c2ccc(O)cc2)CCC/C1=C/c1ccc(Cl)c(Cl)c1 | 7.49 µM | 16.7 | 20 | 16.1 | 11.9 | 17.5 | 8.01 |  |  | 19.6 | 11.8 | 10.5 | 15.7 | 4.01 | 5.76 µM
CC(=O)NC1C(OCc2ccccc2)OC(CO)C(O)C1OC(C)C(=O)NC(C(=O)N[C@@H](CCC(=O)NCCNCCNc1c2ccccc2nc2cccc([N+](=O)[O-])c12)C(N)=O)C(C)C (stereo partly specified) | > 100 µM | > 100 |  | > 100 | 19.9 | > 100 | 54.5 | > 100 | 45.6 |  | > 100 | > 100 |  | 56.2 | 58.7 µM
O=C(O)c1nc2cc(C(F)(F)F)ccc2nc1Nc1ccc(F)cc1 | 46.9 µM | 74.7 | 89.6 |  | > 100 | 50.9 | 91 |  | 32.4 | 48.1 | 49.5 | > 100 | 60.2 | 48.4 | > 100 µM
C=C(C)C1=CCC[C@]2(C1)N=C(OC)[C@@H](C(C)C)N=C2OC | > 100 µM | > 100 | > 100 | > 100 |  | > 100 | > 100 | > 100 | > 100 | > 100 | > 100 | > 100 | > 100 | > 100 | 47.9 µM
O=C(NC1=NCC(CN2CCN(c3ccccc3)CC2)O1)Nc1ccccc1 (stereo unspecified) | > 100 µM | > 100 | > 100 | > 100 | > 100 | > 100 | > 100 | > 100 |  | > 100 |  | > 100 | > 100 | > 100 | > 100 µM
Cc1cc2c(cc1-c1cc3c(cc1C)C(C(C)C)=C(O)C(=O)/C3=C\Nc1c3ccccc3nc3ccccc13)/C(=C/Nc1c3ccccc3nc3ccccc13)C(=O)C(O)=C2C(C)C | 20.7 µM |  | 5.67 | 16.6 |  | 10.1 | 15.8 | 6.3 | 16.1 | 15.4 | 13 |  | 16.6 | 21.5 | > 100 µM
COC(=O)/C=C(/C)n1nc2ccccc2n1 | > 100 µM | > 100 | > 100 | > 100 | > 100 | > 100 | > 100 | > 100 |  | > 100 | > 100 | > 100 | > 100 | > 100 | > 100 µM
